# Measurements: patent publication US20210355065A1, “CB-0406 tromethamine salt” (CymaBay Therapeutics, Inc., priority 2020, published 2021)
# Tests used:
# [1] = Description: CB-0406 tromethamine salt has been characterized using DSC, TGA, XRPD, hot stage microscopy, and solution ^1H NMR. CB-0406 tromethamine salt has also been tested by relative humidity stressing, and its solubility measured in simulated intestinal fluid without pancreatin.
# [2] = 75% RH and 41° C.
# Procedure: Relative humidity (RH) stressing of CB-0406 tromethamine salt was performed by placing solid CB-0406 tromethamine salt in an RH chamber containing a saturated aqueous solution of sodium chloride (˜75% RH), potassium chloride (˜84% RH, RT/-82% RH, 40° C.), sodium bromide (˜58% RH, RT), or potassium sulfate (˜97% RH, RT/-96% RH, 40° C.), with excess salt present. The chamber was sealed and left at ambient temperature or placed in an oven at elevated temperature.
# [3] = at 95% relative humidity relative to weight at 5% relative humidity; approx. 0.2 equivalents of water; essentially completely reversible
# Procedure: A DVS analysis of CB-0406 tromethamine salt was performed using a VTI SGA-100 Vapor Sorption Analyzer. The sample was not dried prior to analysis, and data were not corrected for the initial moisture content of the sample. Equilibrium criteria used for analysis were less than 0.010% weight change in 5 minutes, with a maximum equilibration time of 3 hours if the weight criterion was not met. […] Sodium chloride and polyvinylpyrrolidone were used as calibration standards.
# CYP 2C9 = CYP 2C9 (Homo sapiens, UniProt P11712); conditions: tolbutamide hydroxylation assay; relative to (S)-enantiomer; cited from earlier work
# Sequence of CYP 2C9 (P11712 whole entry, species assumed): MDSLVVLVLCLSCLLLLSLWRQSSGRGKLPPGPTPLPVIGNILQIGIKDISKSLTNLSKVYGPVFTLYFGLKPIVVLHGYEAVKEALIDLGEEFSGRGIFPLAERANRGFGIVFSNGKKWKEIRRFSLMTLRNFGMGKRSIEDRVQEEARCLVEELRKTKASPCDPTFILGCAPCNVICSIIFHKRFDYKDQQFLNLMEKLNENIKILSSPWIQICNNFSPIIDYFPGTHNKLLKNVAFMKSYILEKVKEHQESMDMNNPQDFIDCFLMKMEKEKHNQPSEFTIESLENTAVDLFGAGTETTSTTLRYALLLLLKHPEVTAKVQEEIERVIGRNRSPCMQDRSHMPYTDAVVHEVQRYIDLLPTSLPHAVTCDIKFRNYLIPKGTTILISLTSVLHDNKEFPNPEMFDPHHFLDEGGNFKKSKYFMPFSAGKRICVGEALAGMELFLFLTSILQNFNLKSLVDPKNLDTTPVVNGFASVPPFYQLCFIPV
Molecule,solubility ([1]; simulated intestinal fluid without pancreatin) [mg/mL],"solubility in simulated intestinal fluid, fold greater than that of CB-0406 ([1]; simulated intestinal fluid, relative to CB-0406) [fold]",appearance after RH stressing ([2]; at 7 and 9 days),"XRPD analysis after RH stressing ([2]; at 18 and 46 days, some increase in low angle scattering background)",net weight gain (DVS) [3],fold less active as an inhibitor of CYP 2C9 than its (S)-enantiomer (CYP 2C9)
"1,3-dihydroxy-2-(hydroxymethyl)propan-2-aminium (2R)-2-(4-chlorophenyl)-2-[3-(trifluoromethyl)phenoxy]acetate [CB-0406 tromethamine salt]",> 200,≥ 60,free-flowing solid,consistent with CB-0406 tromethamine salt,less than 0.8%,–
"O=C(O)[C@H](Oc1cccc(C(F)(F)F)c1)c1ccc(Cl)cc1 [CB-0406, (2R)-2-(4-chlorophenyl)-2-[3-(trifluoromethyl)phenoxy]acetic acid]",–,–,–,–,–,approximately 20 fold
